Here are results for seven compounds from PubChem BioAssay (NCI).

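Interpolation was linear, between the two tested concentrations surrounding the appropriate level; five concentrations were tested over 48 hours in 96-well plates. GI50 is the concentration that inhibits growth by half. TGI denotes the concentration required for complete inhibition of growth.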

Some test systems named below: U251 CNS; SNB-19 CNS; RXF 393 renal; KM12 colon; A549 NSCLC; HT29 colon; HCT-15 colon; UACC-62 melanoma; NCI-H226 lung; SNB-75 CNS.
Common to all, as to test: DTP human tumour cell line panel, 48 h

On to `S=C(Sc1ccc(Cl)cc1)Sc1ccc(Cl)cc1`, for which the GI50 in the test on U251 CNS is 2.64 µM; in the test with SNB-19 CNS, 3.8 µM; in the test with RXF 393 renal, 2.04 µM; with KM12 colon, 2.74 µM; with A549 NSCLC, 2.99 µM; in the test with HT29 colon, 1.95 µM. The GI50 is 1.77 µM in the test on HCT-15 colon, 3.15 µM in the test on UACC-62 melanoma, 2.1 µM with NCI-H226 lung and 3.5 µM with SNB-75 CNS. The TGI in the test with U251 CNS amounted to 8.92 µM; in the test with SNB-19 CNS it was 16 µM; with RXF 393 renal it was 3.87 µM; in the test with KM12 colon, 8.64 µM; in the test with A549 NSCLC, 13.7 µM; in the test with HT29 colon, 3.99 µM. In addition, the TGI in the test with HCT-15 colon worked out at 4.71 µM; in the test on UACC-62 melanoma it was 10.6 µM; in the test on NCI-H226 lung, 4.84 µM; with SNB-75 CNS, 16.3 µM.
For `OCCNc1nc2ccccc2c2[nH]c3ccccc3c12`, the GI50 in the test on U251 CNS was 0.661 µM; in the test with SNB-19 CNS, 0.345 µM; in the test on RXF 393 renal it was 0.146 µM; in the test with KM12 colon it was 0.483 µM; in the test on A549 NSCLC it was 0.394 µM; in the test with HT29 colon, 0.321 µM. Moreover, the GI50 with HCT-15 colon was 0.349 µM; in the test with UACC-62 melanoma, 1.36 µM; in the test with NCI-H226 lung it was 0.839 µM; in the test on SNB-75 CNS, 1.88 µM. Besides, the TGI in the test with U251 CNS was found to be 4.31 µM; in the test on SNB-19 CNS, 3.57 µM; in the test on RXF 393 renal, 0.646 µM; in the test on KM12 colon it was 4.63 µM; in the test on A549 NSCLC, 2.19 µM; with HT29 colon, 2.71 µM. For the same compound, the TGI worked out at 3.59 µM in the test on HCT-15 colon, 6.52 µM in the test on UACC-62 melanoma, 4.79 µM in the test on NCI-H226 lung and 4.2 µM in the test on SNB-75 CNS.
Take `COc1cc([C@@H]2c3cc4c(cc3[C@H](SC(=N)N)[C@H]3COC(=O)[C@H]23)OCO4)cc(OC)c1OC`: the GI50 in the test with U251 CNS was 0.311 µM; in the test with SNB-19 CNS, 0.449 µM; in the test on RXF 393 renal, 2.3 µM; in the test on KM12 colon it was 0.0944 µM; in the test with A549 NSCLC, 0.305 µM; in the test on HT29 colon, 0.217 µM. Also, the GI50 in the test with HCT-15 colon is 0.321 µM; with UACC-62 melanoma, 1.64 µM; with NCI-H226 lung, 0.573 µM; with SNB-75 CNS it was 0.477 µM. The TGI in the test on U251 CNS was more than 100 µM; with SNB-19 CNS it was more than 100 µM; in the test with RXF 393 renal it was 35.6 µM; with KM12 colon it was 0.409 µM; in the test with A549 NSCLC it was more than 100 µM; in the test with HCT-15 colon, more than 100 µM. Also, the TGI with UACC-62 melanoma, with NCI-H226 lung and in the test with SNB-75 CNS was more than 100 µM in each case.
As to `OCc1ccc(-c2ccc(-c3ccc(CO)o3)o2)o1`, the GI50 is 39.1 µM with U251 CNS; more than 90.8 µM in the test on SNB-19 CNS; 26.5 µM in the test on RXF 393 renal; more than 100 µM with KM12 colon; more than 100 µM with A549 NSCLC; more than 85.9 µM in the test on HT29 colon. Also, the GI50 is more than 100 µM in the test with HCT-15 colon, 16.7 µM in the test on UACC-62 melanoma, 0.576 µM in the test on NCI-H226 lung and 23.2 µM with SNB-75 CNS. For the same compound, the TGI in the test with U251 CNS is more than 100 µM; with SNB-19 CNS, more than 100 µM; in the test with RXF 393 renal, more than 90 µM; in the test on KM12 colon, more than 100 µM; in the test with A549 NSCLC it was more than 100 µM; in the test on HT29 colon it was more than 100 µM. Also, the TGI in the test with HCT-15 colon was more than 100 µM; in the test with UACC-62 melanoma, more than 100 µM; in the test with NCI-H226 lung, 2.59 µM; in the test with SNB-75 CNS, 79.7 µM.
As to `O=C1Nc2ccc(-c3cccnc3)cc2/C1=C/c1cc(Br)c(O)c(Br)c1`, the GI50 was 6.11 µM in the test on U251 CNS; 9.11 µM in the test with SNB-19 CNS; 6.08 µM in the test on RXF 393 renal; 6.59 µM with KM12 colon; 8.05 µM in the test with A549 NSCLC; 7.06 µM in the test on HT29 colon. Besides, the GI50 in the test on HCT-15 colon was 6.8 µM; with UACC-62 melanoma it was 3.54 µM; with NCI-H226 lung it was 8.43 µM; in the test with SNB-75 CNS, more than 13 µM. Moreover, the TGI in the test with U251 CNS is more than 25 µM; with SNB-19 CNS, more than 25 µM; in the test with RXF 393 renal it was more than 19.9 µM; in the test with KM12 colon it was 24.8 µM; with A549 NSCLC it was more than 25 µM; in the test on HT29 colon, more than 25 µM. In addition, the TGI was more than 25 µM with HCT-15 colon, 9.87 µM with UACC-62 melanoma, more than 25 µM in the test with NCI-H226 lung and more than 25 µM in the test with SNB-75 CNS.
For `O=C(CI)NC(=O)NC(=O)NCc1ccccc1`, the GI50 with U251 CNS was 13.6 µM; in the test with SNB-19 CNS it was 13 µM; in the test with RXF 393 renal, 2.98 µM; in the test on KM12 colon, 10.9 µM; in the test with A549 NSCLC, 18.7 µM; with HT29 colon, 2.66 µM. Also, the GI50 is 2.03 µM in the test with HCT-15 colon, 3.82 µM with UACC-62 melanoma, 4.53 µM in the test with NCI-H226 lung and 11.3 µM in the test with SNB-75 CNS. The TGI was found to be 27.1 µM in the test on U251 CNS; 31.9 µM in the test on SNB-19 CNS; 9.31 µM in the test on RXF 393 renal; 24.9 µM in the test with KM12 colon; 42.8 µM in the test with A549 NSCLC; 6.72 µM in the test on HT29 colon. Moreover, the TGI came to 4.94 µM in the test on HCT-15 colon, 14.6 µM with UACC-62 melanoma, 20.4 µM in the test on NCI-H226 lung and 29.2 µM with SNB-75 CNS.
For `Nc1nc(Cl)c2ncn(Cc3ccc(C45CC6CC(CC(C6)C4)C5)c(OCc4cc(F)c(F)cc4F)c3)c2n1`, the GI50 with U251 CNS is 3.04 µM; in the test on SNB-19 CNS, 6.48 µM; with RXF 393 renal, 0.677 µM; with KM12 colon, 2.93 µM; in the test on A549 NSCLC, 1.94 µM; in the test on HT29 colon it was 3.45 µM. For the same compound, the GI50 with HCT-15 colon is 3.57 µM; in the test on UACC-62 melanoma it was 1.64 µM; in the test on NCI-H226 lung, 5.69 µM; in the test with SNB-75 CNS, 27.5 µM. Also, the TGI was found to be 16.3 µM in the test with U251 CNS; 46.6 µM in the test with SNB-19 CNS; 2.66 µM in the test with RXF 393 renal; 9.13 µM in the test with KM12 colon; 5.89 µM with A549 NSCLC; 22.7 µM in the test on HT29 colon. The TGI is 14.1 µM with HCT-15 colon, 12.6 µM with UACC-62 melanoma, 21.9 µM in the test with NCI-H226 lung and more than 100 µM in the test with SNB-75 CNS.
